Test results published in patent publication US6288091A, “Antiherpes virus compounds and methods for their preparation and use” (Boehringer Ingelheim Ltd., priority 1999, dated 2001).
Read-outs that look alike come from different tables or passages of the source.

What was measured:
HSV-1 strain F or KOS = test: Inhibition of herpes simplex virus (HSV-1) replication in cell culture (BHK-21 cells, glycoprotein C ELISA); type: cell-based; conditions: Human alphaherpesvirus 1, BHK-21, Group 1 Table 1 entries
Outline: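 BHK-21 clone 13 cells infected with HSV-1 F or KOS at MOI 0.05 PFU/cell for 1 h at 37°, washed, then treated with compound in α-MEM/2% FBS for 24 h. Late glycoprotein C quantified by ELISA (mAb C11, HRP/OPD, 450 nm); EC50 from % inhibition.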

HSV-1 helicase-primase = molecular target: T1, HSV-1 helicase-primase (Human herpesvirus 1, UniProt P10189+P10236); test: HSV-1 DNA-dependent ATPase assay (inhibition of HSV-1 helicase-primase); type: biochemical; conditions: Group 1 Table 1 entries
T1 construct: made in house; host or cells: Sf21 insect cells triply infected with recombinant baculoviruses (UL5, UL8, UL52)
Outline: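 Holoenzyme (UL5/UL8/UL52) expressed in baculovirus-infected Sf21 cells and purified, used at 3 μg/mL with 4 mM ATP and 25 μM primed M13 ssDNA in HEPES pH 7.5, 5.5 mM MgCl2, 3.3% DMSO. Incubated 20 min at 34°. Released phosphate read by malachite green at 650 nm, and activity taken from net absorbance with versus without inhibitor.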

HCMV (strain AD169) = test: Inhibition of HCMV replication, plaque reduction assay (PRA, Hs-68 cells); type: cell-based, Human Cytomegalovirus (HCMV); conditions: read-out: PRA CMV EC50
Outline: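 Hs-68 monolayers (80–90% confluent) were infected with ~50 PFU HCMV AD169 for 2 h at 37°, then given compound in DMEM/5% inactivated FBS, refreshed after 4 days and kept 4 more days. Plaques were counted after formaldehyde fixation and crystal violet staining. EC50 derives from percent plaque reduction versus untreated wells.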

[1] = Human betaherpesvirus 5, AD169, Hs68, Group 1 Table 1 entries

T1 sequence (P10192 whole entry): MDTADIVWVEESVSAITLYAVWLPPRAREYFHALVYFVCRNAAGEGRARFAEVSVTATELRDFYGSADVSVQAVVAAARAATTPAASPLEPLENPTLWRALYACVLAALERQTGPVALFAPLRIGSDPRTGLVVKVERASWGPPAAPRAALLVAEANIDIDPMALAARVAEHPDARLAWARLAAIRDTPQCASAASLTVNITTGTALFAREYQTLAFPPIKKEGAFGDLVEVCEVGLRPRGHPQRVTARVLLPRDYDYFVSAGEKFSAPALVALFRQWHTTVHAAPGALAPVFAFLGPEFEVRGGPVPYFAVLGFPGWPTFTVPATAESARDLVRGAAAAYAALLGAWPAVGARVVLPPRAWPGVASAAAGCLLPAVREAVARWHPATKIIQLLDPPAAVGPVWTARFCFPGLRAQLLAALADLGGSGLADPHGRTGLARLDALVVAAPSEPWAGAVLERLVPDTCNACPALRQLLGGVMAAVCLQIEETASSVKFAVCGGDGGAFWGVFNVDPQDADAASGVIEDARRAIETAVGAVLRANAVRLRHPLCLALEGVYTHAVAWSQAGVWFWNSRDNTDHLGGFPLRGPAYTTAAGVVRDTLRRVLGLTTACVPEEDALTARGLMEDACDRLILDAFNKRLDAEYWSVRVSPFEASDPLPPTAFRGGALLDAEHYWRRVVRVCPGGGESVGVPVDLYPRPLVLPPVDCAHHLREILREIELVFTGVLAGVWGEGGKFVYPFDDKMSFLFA
T1 sequence (P10236 whole entry): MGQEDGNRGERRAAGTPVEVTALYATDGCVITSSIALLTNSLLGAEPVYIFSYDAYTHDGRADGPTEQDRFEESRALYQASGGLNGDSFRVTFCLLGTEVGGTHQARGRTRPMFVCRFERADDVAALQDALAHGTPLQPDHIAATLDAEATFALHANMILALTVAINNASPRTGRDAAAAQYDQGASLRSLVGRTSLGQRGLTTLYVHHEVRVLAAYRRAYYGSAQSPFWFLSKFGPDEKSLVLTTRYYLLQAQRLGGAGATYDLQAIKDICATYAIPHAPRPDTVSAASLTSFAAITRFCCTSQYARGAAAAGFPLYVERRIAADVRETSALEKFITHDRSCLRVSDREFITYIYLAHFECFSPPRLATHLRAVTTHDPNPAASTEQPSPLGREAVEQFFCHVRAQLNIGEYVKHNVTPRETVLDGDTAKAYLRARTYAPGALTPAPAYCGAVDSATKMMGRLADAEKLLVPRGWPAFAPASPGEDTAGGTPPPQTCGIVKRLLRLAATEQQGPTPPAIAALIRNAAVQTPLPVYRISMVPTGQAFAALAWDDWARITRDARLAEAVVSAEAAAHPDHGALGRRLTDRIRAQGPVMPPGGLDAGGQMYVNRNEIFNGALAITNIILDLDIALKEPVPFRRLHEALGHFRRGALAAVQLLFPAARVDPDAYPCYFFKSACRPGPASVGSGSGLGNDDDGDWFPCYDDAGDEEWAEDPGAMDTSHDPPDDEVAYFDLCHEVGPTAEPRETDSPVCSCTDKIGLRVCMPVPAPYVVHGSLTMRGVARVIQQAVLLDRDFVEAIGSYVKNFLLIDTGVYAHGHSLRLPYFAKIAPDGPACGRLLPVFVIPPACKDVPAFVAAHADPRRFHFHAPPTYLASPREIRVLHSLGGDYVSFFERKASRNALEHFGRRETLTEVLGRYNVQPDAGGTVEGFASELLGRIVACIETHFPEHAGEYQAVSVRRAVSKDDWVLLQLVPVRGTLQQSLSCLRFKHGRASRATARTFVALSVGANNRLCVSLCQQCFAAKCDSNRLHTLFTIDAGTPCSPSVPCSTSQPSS
T1 sequence (P10189 whole entry): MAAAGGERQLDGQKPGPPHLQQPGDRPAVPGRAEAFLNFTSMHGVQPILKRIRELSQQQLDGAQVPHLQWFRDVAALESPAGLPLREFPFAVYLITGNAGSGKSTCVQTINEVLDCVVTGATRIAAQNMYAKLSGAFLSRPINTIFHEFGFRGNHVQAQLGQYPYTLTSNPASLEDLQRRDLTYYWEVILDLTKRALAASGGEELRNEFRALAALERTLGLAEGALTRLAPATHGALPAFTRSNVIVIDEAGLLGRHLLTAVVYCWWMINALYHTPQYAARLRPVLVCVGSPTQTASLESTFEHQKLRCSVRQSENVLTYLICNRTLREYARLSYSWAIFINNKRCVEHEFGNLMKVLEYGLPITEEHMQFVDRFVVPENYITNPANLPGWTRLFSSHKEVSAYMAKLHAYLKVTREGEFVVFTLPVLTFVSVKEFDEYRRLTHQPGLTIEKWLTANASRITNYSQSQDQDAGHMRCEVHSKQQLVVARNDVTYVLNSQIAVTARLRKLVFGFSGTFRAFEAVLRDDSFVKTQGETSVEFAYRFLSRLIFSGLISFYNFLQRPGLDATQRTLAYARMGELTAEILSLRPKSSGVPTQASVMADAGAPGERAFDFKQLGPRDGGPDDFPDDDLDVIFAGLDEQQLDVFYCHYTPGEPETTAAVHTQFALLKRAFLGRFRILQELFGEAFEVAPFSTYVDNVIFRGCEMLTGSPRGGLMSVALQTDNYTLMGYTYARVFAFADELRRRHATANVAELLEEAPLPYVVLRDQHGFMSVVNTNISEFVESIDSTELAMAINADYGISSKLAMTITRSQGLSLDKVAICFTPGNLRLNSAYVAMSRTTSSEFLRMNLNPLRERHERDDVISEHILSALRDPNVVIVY

SMILES	EC50 (HSV-1 strain F or KOS) [nM]	IC50 (HSV-1 helicase-primase) [nM]	EC50 (HCMV (strain AD169); [1]) [nM]	EC50 (HCMV (strain AD169); Group 1 Table 1 entries) [nM]	inhibition at 50 µM (HSV-1 helicase-primase; at 50 μM, read-out: inhibition at 50 μM (printed in the HSV-1 IC50 column)) [%]
Nc1nc(-c2ccc(NC(=O)CN(Cc3ccccc3)C(=O)c3ccncc3)cc2)cs1 [Example 29]	35	240	27000		
Nc1nc(-c2ccc(NC(=O)CN(Cc3ccccc3)C(=O)c3cc[n+]([O-])cc3)cc2)cs1 [Example 30]	430	440	> 88000		
Nc1nc(-c2ccc(NC(=O)CN(Cc3ccccc3)C(=O)Cc3ccccn3)cc2)cs1 [Example 31]	400	1600	8100		
Nc1nc(-c2ccc(NC(=O)CN(Cc3ccccc3)C(=O)c3cccs3)cc2)cs1 [Example 32]	40	420	8500		
Nc1nc(-c2ccc(NC(=O)CN(Cc3ccccc3)C(=O)c3cnccn3)cc2)cs1 [Example 33]	170	1100	20000		
Nc1nc(-c2ccc(NC(=O)CN(Cc3ccccc3)C(=O)C3CCCCC3)cc2)cs1 [Example 34]	4	26	15000		
Nc1nc(-c2ccc(NC(=O)CN(Cc3ccccc3)C(=O)C3CCCC3)cc2)cs1 [Example 36]	5	41	16000		
Nc1nc(-c2ccc(NC(=O)CN(Cc3ccccc3)C(=O)CC3CCCCC3)cc2)cs1 [Example 38]	16	88	4600		
Nc1nc(-c2ccc(NC(=O)CN(Cc3ccccc3)C(=O)CC3CCCC3)cc2)cs1 [Example 39]	9	59	8500		
CC(C)(C)C(=O)N(CC(=O)Nc1ccc(-c2csc(N)n2)cc1)Cc1ccccc1 [Example 41]	36	800	34000		
CC(C)(C)CC(=O)N(CC(=O)Nc1ccc(-c2csc(N)n2)cc1)Cc1ccccc1 [Example 42]	2	26	20000		
CC(C)C(=O)N(CC(=O)Nc1ccc(-c2csc(N)n2)cc1)Cc1ccccc1 [Example 43]	130	1600	13000		
CC(=O)N(CC(=O)Nc1ccc(-c2csc(N)n2)cc1)Cc1ccccc1 [Example 44]	750	3300	37000		
Nc1nc(-c2ccc(NC(=O)CN(Cc3ccccn3)C(=O)C3CCCCC3)cc2)cs1 [Example 47]	13	72	> 103000		
Nc1nc(-c2ccc(NC(=O)CN(Cc3cccnc3)C(=O)C3CCCCC3)cc2)cs1 [Example 48]	40	140	49000		
Nc1nc(-c2ccc(NC(=O)CN(Cc3ccncc3)C(=O)C3CCCCC3)cc2)cs1 [Example 49, N-{2-{{4-(2-amino-4-thiazolyl)phenyl}amino}-2-oxoethyl}-N-(4-pyridinylmethyl)cyclohexanecarboxamide]	12	37	23000		
Nc1nc(-c2ccc(NC(=O)CN(CCc3ccccn3)C(=O)C3CCCCC3)cc2)cs1 [Example 50]	68	600	13000		
Nc1nc(-c2ccc(NC(=O)CN(Cc3cccs3)C(=O)C3CCCCC3)cc2)cs1 [Example 51]	2	63	11000		
C[C@H](c1ccccc1)N(CC(=O)Nc1ccc(-c2csc(N)n2)cc1)C(=O)C1CCCCC1 [Example 52]	13	87	6000		

SMILES	EC50 (HSV-1 strain F or KOS) [nM]	IC50 (HSV-1 helicase-primase) [nM]	EC50 (HCMV (strain AD169); [1]) [nM]	EC50 (HCMV (strain AD169); Group 1 Table 1 entries) [nM]	inhibition at 50 µM (HSV-1 helicase-primase; at 50 μM, read-out: inhibition at 50 μM (printed in the HSV-1 IC50 column)) [%]
C[C@@H](c1ccccc1)N(CC(=O)Nc1ccc(-c2csc(N)n2)cc1)C(=O)C1CCCCC1 [Example 53]	3	38	12000		
C[C@@H](c1ccccc1)N(CC(=O)Nc1ccc(-c2csc(N)n2)cc1)C(=O)c1ccncc1 [Example 58]	40	190	30000		
Nc1nc(-c2ccc(NC(=O)CN(CC3CCCCC3)C(=O)c3ccccc3)cc2)cs1 [Example 60]	540	1500		15000	
Nc1nc(-c2ccc(NC(=O)CN(CC3CCCCC3)C(=O)C3CCNCC3)cc2)cs1 [Example 62]	5500		38000		29
Nc1nc(-c2ccc(NC(=O)CN(CC3CCCCC3)C(=O)C3CCCC3)cc2)cs1 [Example 63]	250	780	> 21000		
Nc1nc(-c2ccc(NC(=O)CN(CCc3ccccc3)C(=O)C3CCCC3)cc2)cs1 [Example 66]	90	400	> 10000		
CC(C)(C)OC(=O)NCC(=O)N(CC(=O)Nc1ccc(-c2csc(N)n2)cc1)Cc1ccccc1 [Example 72]	670	650	24000		
Nc1nc(-c2ccc(NC(=O)CN(CC3CCCCC3)C(=O)Cc3ccccc3)cc2)cs1 [Example 77]	190	370	7500		
Nc1nc(-c2ccc(NC(=O)CN(CCc3ccccn3)C(=O)C3CCCC3)cc2)cs1 [Example 79]	160	840	55000		
CC(C)(C)CN(CC(=O)Nc1ccc(-c2csc(N)n2)cc1)C(=O)C1CCCCC1 [Example 80]	310	960	9500		
CCCC(CCC)N(CC(=O)Nc1ccc(-c2csc(N)n2)cc1)C(=O)C1CCCCC1 [Example 82]	60	620	7000		
Nc1nc(-c2ccc(NC(=O)CN(Cc3ccc(F)cc3)C(=O)c3ccncc3)cc2)cs1 [Example 84]	140	360	37000		
CC(C)(C)OC(=O)N(CC(=O)Nc1ccc(-c2csc(N)n2)cc1)Cc1ccccc1 [Example 85]	10	16	12000		
C[C@@H](c1ccccc1)N(CC(=O)Nc1ccc(-c2csc(N)n2)cc1)C(=O)OC(C)(C)C [Example 89]	36	98	38000		
CC(C)(C)OC(=O)N(CC(=O)Nc1ccc(-c2csc(N)n2)cc1)Cc1ccncc1 [Example 90]	15	58	88000		
CC(C)(C)NC(=S)N(CC(=O)Nc1ccc(-c2csc(N)n2)cc1)Cc1ccccc1 [Example 93]	120	160	> 24000		
Nc1nc(-c2ccc(NC(=O)CN(Cc3ccccc3)S(=O)(=O)c3ccccc3)cc2)cs1 [Example 97]	130	310	15000		
CCC(CC)C(=O)N(CC(=O)Nc1ccc(-c2csc(N)n2)cc1)Cc1ccccc1 [Example 104]	16	78	> 18000		
CN(C)CCN(CC(=O)Nc1ccc(-c2csc(N)n2)cc1)C(=O)C1CCCCC1 [Example 140]	9200	48000	29000		
